From patent publication US8178570B2, “Tie-2 modulators and methods of use” (Exelixis, Inc., priority 2003, dated 2012)
pIC50: −log10 of the molar value.

Target: Tie-2 (Homo sapiens, UniProt Q02763)
Assay: Tie-2 tyrosine kinase activity: kinase-dependent ATP consumption (pEY substrate, luciferase/luciferin chemiluminescence) or 33P-ATP incorporation into substrate
Format: biochemical
Settings: Tie-2 (human enzyme) inhibition, Table 2, class symbols A-D
How it was run: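 Tie-2 kinase activity is read either as ATP consumption with pEY substrate by luciferase/luciferin chemiluminescence, or as 33P incorporation from 33P-ATP into plate-adsorbed substrate by scintillation counting. IC50 values are binned as A <50 nM, B >50–1000 nM, C >1000–<10,000 nM, and D ≥10,000 nM.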

Sequence of Tie-2 (Q02763 23-1124): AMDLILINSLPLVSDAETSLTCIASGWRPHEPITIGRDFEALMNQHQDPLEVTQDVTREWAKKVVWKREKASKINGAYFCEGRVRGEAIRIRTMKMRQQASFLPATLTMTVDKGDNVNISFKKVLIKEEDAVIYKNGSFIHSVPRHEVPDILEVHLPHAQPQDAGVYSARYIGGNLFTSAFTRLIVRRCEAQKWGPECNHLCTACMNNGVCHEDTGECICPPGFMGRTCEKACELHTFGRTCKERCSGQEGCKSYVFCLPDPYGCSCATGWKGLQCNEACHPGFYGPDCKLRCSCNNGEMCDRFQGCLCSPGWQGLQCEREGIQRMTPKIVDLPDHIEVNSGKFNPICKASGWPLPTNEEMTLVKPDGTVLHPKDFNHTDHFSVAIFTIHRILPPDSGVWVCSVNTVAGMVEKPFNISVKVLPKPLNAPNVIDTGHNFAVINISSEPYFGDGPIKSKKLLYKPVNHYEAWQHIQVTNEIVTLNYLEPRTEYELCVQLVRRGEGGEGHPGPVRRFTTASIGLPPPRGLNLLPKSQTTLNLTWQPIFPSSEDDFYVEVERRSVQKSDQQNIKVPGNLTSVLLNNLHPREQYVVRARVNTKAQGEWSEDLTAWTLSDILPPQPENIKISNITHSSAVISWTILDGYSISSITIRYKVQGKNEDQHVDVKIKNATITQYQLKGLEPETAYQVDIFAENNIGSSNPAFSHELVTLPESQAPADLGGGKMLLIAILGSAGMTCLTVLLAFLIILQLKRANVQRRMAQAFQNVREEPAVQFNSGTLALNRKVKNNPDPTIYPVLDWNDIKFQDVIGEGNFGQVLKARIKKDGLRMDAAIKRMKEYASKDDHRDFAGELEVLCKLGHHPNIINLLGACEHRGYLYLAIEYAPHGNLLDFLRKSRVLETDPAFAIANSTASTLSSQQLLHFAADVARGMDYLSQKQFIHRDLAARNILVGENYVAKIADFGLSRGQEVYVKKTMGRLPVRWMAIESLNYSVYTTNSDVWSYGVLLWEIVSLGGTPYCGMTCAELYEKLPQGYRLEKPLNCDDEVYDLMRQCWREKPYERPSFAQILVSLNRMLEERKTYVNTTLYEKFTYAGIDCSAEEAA

Row | pIC50 | SMILES
1 | ≤ 5.00 | COC(=O)CCn1nc(-c2ccncc2)nc1-c1ccc(OC)c(Cl)c1 [Entry 6, methyl 3-{5-[3-chloro-4-(methyloxy)phenyl]-3-pyridin-4-yl-1H-1,2,4-triazol-1-yl}propanoate]
2 | ≤ 5.00 | COc1ccc(-c2nc(-c3ccncc3)nn2CCN(C(=O)c2ccccc2)C2CCCC2)cc1Cl [Entry 26, N-(2-{5-[3-chloro-4-(methyloxy)phenyl]-3-pyridin-4-yl-1H-1,2,4-triazol-1-yl}ethyl)-N-cyclopentylbenzamide]
3 | 5.00 to 6.00 | COc1ccc(-c2nc(-c3ccncc3)nn2CCCCN(C(=O)Cc2cccc3ccccc23)C2CCCC2)cc1Cl [Entry 24, N-(4-{5-[3-chloro-4-(methyloxy)phenyl]-3-pyridin-4-yl-1H-1,2,4-triazol-1-yl}butyl)-N-cyclopentyl-2-naphthalen-1-ylacetamide]
4 | ≤ 5.00 | COc1ccc(-c2nc(-c3ccncc3)nn2CCN(C(=O)Nc2c(F)cccc2F)C2CCCC2)cc1Cl [Entry 117, N-(2-{5-[3-chloro-4-(methyloxy)phenyl]-3-pyridin-4-yl-1H-1,2,4-triazol-1-yl}ethyl)-N-cyclopentyl-N′-(2,6-difluorophenyl)urea]
5 | > 7.30 | O=C(Cc1cccc2ccccc12)N(CCc1n[nH]c(-c2ccncc2)n1)C1CCCC1 [Entry 49, N-cyclopentyl-2-naphthalen-1-yl-N-[2-(5-pyridin-4-yl-1H-1,2,4-triazol-3-yl)ethyl]acetamide]
6 | 5.00 to 6.00 | CCOc1cc(-c2nc(C)n(CCN(C(=O)Cc3cccc4ccccc34)C3CCCC3)n2)cc(N)n1 [Entry 187, N-(2-{3-[2-amino-6-(ethyloxy)pyridin-4-yl]-5-methyl-1H-1,2,4-triazol-1-yl}ethyl)-N-cyclopentyl-2-naphthalen-1-ylacetamide]
7 | ≤ 5.00 | COc1ccc(-c2nc(-c3ccncc3)nn2CCN(C(=O)Nc2ccc(C(F)(F)F)cc2)C2CCCC2)cc1Cl [Entry 124, N-(2-{5-[3-chloro-4-(methyloxy)phenyl]-3-pyridin-4-yl-1H-1,2,4-triazol-1-yl}ethyl)-N-cyclopentyl-N′-[4-(trifluoromethyl)phenyl]urea]
8 | ≤ 5.00 | CCNC(=O)N(CCn1nc(-c2ccncc2)nc1-c1ccc(OC)c(Cl)c1)C1CCCC1 [Entry 109, N-(2-{5-[3-chloro-4-(methyloxy)phenyl]-3-pyridin-4-yl-1H-1,2,4-triazol-1-yl}ethyl)-N-cyclopentyl-N′-ethylurea]
9 | > 7.30 | O=C(Cc1cccc2ccccc12)N(CCn1nc(-c2ccncc2)nc1-c1ccc(C(F)(F)F)cc1)C1CCCC1 [Entry 76, N-cyclopentyl-2-naphthalen-1-yl-N-(2-{3-pyridin-4-yl-5-[4-(trifluoromethyl)phenyl]-1H-1,2,4-triazol-1-yl}ethyl)acetamide]
10 | ≤ 5.00 | COc1ccc(-c2nc(-c3ccncc3)n(CCCCN(C(=O)Cc3cccc4ccccc34)C3CCCC3)n2)cc1Cl [Entry 25, N-(4-{3-[3-chloro-4-(methyloxy)phenyl]-5-pyridin-4-yl-1H-1,2,4-triazol-1-yl}butyl)-N-cyclopentyl-2-naphthalen-1-ylacetamide]
11 | > 7.30 | CCCCNc1cc(-c2nc(C)n(CCN(C(=O)Cc3cccc4ccccc34)C3CCCC3)n2)ccn1 [Entry 173, N-(2-{3-[2-(butylamino)pyridin-4-yl]-5-methyl-1H-1,2,4-triazol-1-yl}ethyl)-N-cyclopentyl-2-naphthalen-1-ylacetamide]
12 | 5.00 to 6.00 | COc1ccc(-c2nc(-c3ccncc3)nn2CCN(C(=O)Nc2cccc(F)c2)C2CCCC2)cc1Cl [Entry 134, N-(2-{5-[3-chloro-4-(methyloxy)phenyl]-3-pyridin-4-yl-1H-1,2,4-triazol-1-yl}ethyl)-N-cyclopentyl-N′-(3-fluorophenyl)urea]
13 | ≤ 5.00 | COc1ccc(-c2nc(-c3ccncc3)nn2CCN(C(=O)Nc2c(Cl)cc(Cl)cc2Cl)C2CCCC2)cc1Cl [Entry 137, N-(2-{5-[3-chloro-4-(methyloxy)phenyl]-3-pyridin-4-yl-1H-1,2,4-triazol-1-yl}ethyl)-N-cyclopentyl-N′-(2,4,6-trichlorophenyl)urea]
